From PubChem BioAssay (NCI)
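Grown in 96-well plates, cells were treated for 48 hours with each compound at five concentrations. Insufficient inhibition: endpoint recorded as highest concentration tested. TGI is the concentration that stops growth completely.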

What was measured:
Test in all cases: NCI tumour cell line growth inhibition, 48 h
[1] = test system: NCI-H522 lung
[2] = test system: SK-MEL-28 melanoma
[3] = test system: HCC-2998 colon
[4] = test system: OVCAR-4 ovarian
[5] = test system: OVCAR-3 ovarian
[6] = test system: NCI/ADR-RES ovarian
[7] = test system: NCI-H460 lung
[8] = test system: M14 melanoma
[9] = test system: RXF 393 renal
[10] = test system: IGROV1 ovarian
[11] = test system: BT-549 breast
[12] = test system: ACHN renal
[13] = test system: SF-268 CNS
[14] = test system: HOP-92 NSCLC
[15] = test system: UACC-257 melanoma
[16] = test system: HOP-62 NSCLC
[17] = test system: A549 NSCLC
[18] = test system: OVCAR-8 ovarian
[19] = test system: HT29 colon
[20] = test system: DU-145 prostate
[21] = test system: MDA-MB-435
[22] = test system: MCF7 breast
[23] = test system: COLO 205 colon
[24] = test system: HCT-116 colon
[25] = test system: SR leukemia
[26] = test system: PC-3 prostate
[27] = test system: TK-10 renal
[28] = test system: HCT-15 colon
[29] = test system: MDA-MB-231 breast
[30] = test system: HS 578T breast
[31] = test system: RPMI-8226 leukemia
[32] = test system: UACC-62 melanoma
[33] = test system: U251 CNS
[34] = test system: A498 renal
[35] = test system: SK-OV-3 ovarian
[36] = test system: OVCAR-5 ovarian
[37] = test system: SK-MEL-5 melanoma
[38] = test system: 786-0 renal
[39] = test system: SF-539 CNS
[40] = test system: MDA-N
[41] = test system: CAKI-1 renal
[42] = test system: EKVX NSCLC
[43] = test system: NCI-H23 lung
[44] = test system: KM12 colon
[45] = test system: HL-60(TB) leukemia
[46] = test system: LOX IMVI melanoma
[47] = test system: SF-295 CNS
[48] = test system: SW-620 colon
[49] = test system: T-47D breast
[50] = test system: SNB-19 CNS
[51] = test system: MOLT-4 leukemia
[52] = test system: SK-MEL-2 melanoma
[53] = test system: SN12C renal
[54] = test system: SNB-75 CNS
[55] = test system: UO-31 renal
[56] = test system: MALME-3M melanoma
[57] = test system: K-562 leukemia
[58] = test system: NCI-H226 lung
[59] = test system: CCRF-CEM leukemia

## COc1ccc(C2c3cc4c(cc3OC(N3CCOCC3)C2C)OCO4)cc1OC (stereo not given)
[1]
  TGI: 22.8 µM
[2]
  TGI: > 100 µM
[3]
  TGI: > 44.8 µM
[4]
  TGI: > 100 µM
[5]
  TGI: 13.2 µM
[6]
  TGI: 25.7 µM
[7]
  TGI: > 63.8 µM
[8]
  TGI: 52.3 µM
[9]
  TGI: 25.4 µM
[10]
  TGI: > 100 µM
[11]
  TGI: > 100 µM
[12]
  TGI: > 100 µM
[13]
  TGI: > 100 µM
[14]
  TGI: > 92.3 µM
[15]
  TGI: > 100 µM
[16]
  TGI: 72.6 µM
[17]
  TGI: > 85 µM
[18]
  TGI: > 100 µM
[19]
  TGI: 46.8 µM
[20]
  TGI: > 79.7 µM
[21]
  TGI: 6.25 µM
[22]
  TGI: > 96 µM
[23]
  TGI: > 44.2 µM
[24]
  TGI: 50.8 µM
[25]
  TGI: > 100 µM
[26]
  TGI: > 100 µM
[27]
  TGI: > 88.8 µM
[28]
  TGI: > 100 µM
[29]
  TGI: > 100 µM
[30]
  TGI: 22.1 µM
[31]
  TGI: > 100 µM
[32]
  TGI: > 82.9 µM
[33]
  TGI: 29.5 µM
[34]
  TGI: 43 µM
[35]
  TGI: 87.7 µM
[36]
  TGI: > 100 µM
[37]
  TGI: > 100 µM
[38]
  TGI: 53.8 µM
[39]
  TGI: 22.1 µM
[40]
  TGI: 4.65 µM
[41]
  TGI: 26.4 µM
[42]
  TGI: > 100 µM
[43]
  TGI: > 89.6 µM
[44]
  TGI: > 100 µM
[45]
  TGI: > 29.1 µM
[46]
  TGI: > 93.7 µM
[47]
  TGI: 32.8 µM
[48]
  TGI: > 100 µM
[49]
  TGI: > 100 µM
[50]
  TGI: 77.6 µM
[51]
  TGI: 77.9 µM
[52]
  TGI: 61.8 µM
[53]
  TGI: > 100 µM
[54]
  TGI: 21.4 µM
[55]
  TGI: > 100 µM
[56]
  TGI: > 100 µM
[57]
  TGI: > 56.5 µM
[58]
  TGI: 31.7 µM
[59]
  TGI: 62.5 µM

## Cc1ccc(N=NC(=Nc2ccc(F)cc2)c2ccc(N(CCC#N)CCC#N)cc2)cc1
[1]
  TGI: 63.7 µM
[2]
  TGI: > 100 µM
[3]
  TGI: > 100 µM
[4]
  TGI: > 100 µM
[5]
  TGI: > 100 µM
[6]
  TGI: > 100 µM
[7]
  TGI: > 100 µM
[8]
  TGI: > 100 µM
[9]
  TGI: > 100 µM
[10]
  TGI: > 100 µM
[11]
  TGI: > 100 µM
[12]
  TGI: > 100 µM
[13]
  TGI: > 100 µM
[14]
  TGI: > 100 µM
[15]
  TGI: 91.3 µM
[16]
  TGI: > 100 µM
[17]
  TGI: > 100 µM
[18]
  TGI: > 100 µM
[19]
  TGI: > 100 µM
[20]
  TGI: > 100 µM
[21]
  TGI: > 100 µM
[22]
  TGI: > 100 µM
[23]
  TGI: > 100 µM
[24]
  TGI: > 100 µM
[25]
  TGI: > 100 µM
[26]
  TGI: > 100 µM
[27]
  TGI: > 100 µM
[28]
  TGI: > 100 µM
[29]
  TGI: > 100 µM
[30]
  TGI: > 100 µM
[31]
  TGI: > 100 µM
[32]
  TGI: > 100 µM
[33]
  TGI: > 100 µM
[34]
  TGI: > 100 µM
[35]
  TGI: > 100 µM
[36]
  TGI: > 100 µM
[37]
  TGI: > 100 µM
[38]
  TGI: > 100 µM
[39]
  TGI: > 100 µM
[40]
  TGI: > 100 µM
[41]
  TGI: > 100 µM
[42]
  TGI: > 100 µM
[43]
  TGI: > 100 µM
[44]
  TGI: > 100 µM
[47]
  TGI: > 100 µM
[48]
  TGI: > 100 µM
[49]
  TGI: > 100 µM
[50]
  TGI: > 100 µM
[51]
  TGI: > 100 µM
[52]
  TGI: > 100 µM
[53]
  TGI: > 100 µM
[54]
  TGI: > 100 µM
[55]
  TGI: > 100 µM
[57]
  TGI: > 100 µM
[58]
  TGI: > 100 µM
[59]
  TGI: > 100 µM
